Results: patent US7868014B2, “1-(hetero)aryl-3-amino-pyrrolidine derivatives for use as mGluR3 antagonists” (Eli Lilly and Company, priority 2004, dated 2011)
Counter-ions that a name gives are not always drawn.

target: T1, human mGluR3 (Homo sapiens, UniProt Q14832); test: Antagonism of glutamate-induced increase in intracellular calcium (FLIPR) in mGluR3-expressing AV12 cells; assay type: cell-based; conditions: antagonism of 50 μM glutamate-induced calcium response, AV12 cells expressing human mGluR3 and Gα15, Fluo-3AM
T1 construct: expressed in transfected cells; host or cells: AV12 cells (adenovirus-transformed Syrian hamster cell line) stably expressing RGT and GLT, co-transfected with Galpha15
T1 sequence (Q14832 23-879): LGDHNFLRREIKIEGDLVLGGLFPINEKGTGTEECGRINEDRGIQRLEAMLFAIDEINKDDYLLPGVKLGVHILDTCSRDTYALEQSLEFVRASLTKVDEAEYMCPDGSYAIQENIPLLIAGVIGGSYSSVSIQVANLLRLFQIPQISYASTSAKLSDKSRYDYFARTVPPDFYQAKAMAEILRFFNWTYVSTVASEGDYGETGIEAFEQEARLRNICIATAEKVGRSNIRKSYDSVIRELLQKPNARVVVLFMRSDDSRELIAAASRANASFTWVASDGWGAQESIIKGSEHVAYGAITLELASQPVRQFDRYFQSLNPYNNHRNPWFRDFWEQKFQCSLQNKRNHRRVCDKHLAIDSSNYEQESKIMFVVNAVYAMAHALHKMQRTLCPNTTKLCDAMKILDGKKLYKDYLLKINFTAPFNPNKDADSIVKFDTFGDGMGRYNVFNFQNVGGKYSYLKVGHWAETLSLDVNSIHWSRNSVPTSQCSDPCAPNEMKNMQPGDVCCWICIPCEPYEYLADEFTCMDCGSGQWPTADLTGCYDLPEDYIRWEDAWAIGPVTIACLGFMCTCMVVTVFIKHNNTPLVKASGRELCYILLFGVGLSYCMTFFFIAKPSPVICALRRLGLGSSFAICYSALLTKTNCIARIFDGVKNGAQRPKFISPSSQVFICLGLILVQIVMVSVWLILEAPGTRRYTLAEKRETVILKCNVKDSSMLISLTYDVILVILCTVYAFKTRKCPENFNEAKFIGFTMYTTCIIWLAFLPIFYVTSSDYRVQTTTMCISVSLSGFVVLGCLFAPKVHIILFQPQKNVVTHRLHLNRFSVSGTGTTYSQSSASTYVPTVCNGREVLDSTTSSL
Protocol: Antagonism of Glutamate-Induced Increase in Intracellular Calcium with a mGluRs Expressing Cell Line
Introduce human mGluR3 and the promiscuous G-protein, Galpha15 (Gα15) into AV12 cells (an adenovirus-transformed Syrian hamster cell line) that stably express RGT (Rat Glutamate Transporter) and GLT (Glutamate Like Transporter). Maintain the expression of these four exogenous genes by culturing the cells in DMEM (Gibco, 11960-051) supplemented with 5% dialyzed fetal bovine serum, 2 mM glutamine, 1 mM sodium pyruvate, 10 mM HEPES, 100 μg/mL G418, 1 μg/mL puromycin, 1 μg/mL blastocidin, and 100 μg/mL zeocin. Passage confluent cultures weekly. The expression of Gα15 allows the change of the signaling pathway of the mGlu3 receptor to one that can be easily monitored through the release of intracellular calcium before and after the addition of drugs on a Fluorometric Imaging Plate Reader (i.e. FLIPR, Molecular Devices). Use the following buffers throughout as the Assay Buffer: HBSS (BioWhittaker, 10-527F) supplemented with 20 mM HEPES (Biowhittaker, 17-737E) at pH 7.4. Prepare a stock solution of 4 mM Fluo-3AM (Molecular Probes, F-1241), a calcium sensitive dye by adding 2.21 mL of 20% pluronate in DMSO to a vial containing 10 mg of Fluo-3AM. Sonicate the solution for 30 minutes to facilitate solubilization of the Fluo-3AM and then store at −20° C. Prepare the working solution of 8 μM Fluo-3AM by diluting the stock Fluo-3AM (4 mM) 500-fold into Assay Buffer. Harvest cells 24 h prior to assay using Hank's based cell dissociation solution (Specialty Media, a division of Cell & Molecular Technologies, S-004-B) and plate at a density of 50,000 cells per well in a 96-well poly-D-lysine treated black walled, clear bottom plate (Becton Dickinson, 356640). Incubate cells with 8 μM Fluo-3AM (50 μL per well) for 2 hours at 25° C. Following the dye-loading of the cells, remove the 8 μM Fluo-3AM and replace with Assay Buffer pre-warmed to 37° C. (50 μL per well). Ready the cells for assay on the FLIPR. Set the stage of the FLIPR to 34.5° C. prior to initiation of the assay. Perform a two addition FLIPR assay. Pre-warm the reagents for both additions (compounds and glutamate) to 37° C. prior to initiation of the assay. Add the test compound to the cell plate (50 μL per well) after taking an initial fluorescent read of the cell plate for 10 seconds. Test compounds in a 10 point concentration response curve starting at a final concentration on the cells of 12.5 μM with 3-fold dilutions in Assay Buffer/1.25% DMSO. Collect data every second for the first 30 seconds and then every 3 seconds until the second addition made at 2 minutes. Perform the second addition of 100 μM glutamate in Assay Buffer (100 μL per well for a final glutamate concentration of 50 μM on the cells) 2 minutes after the addition of compound. Collect the second addition data every second for 30 seconds and then every 3 seconds until the end of the run at total time of 3.25 minutes. Measure the response as maximal peak height in Relative Fluorescent Units (RFUs). Define the assay window as the maximal response obtained by 50 μM glutamate minus the response obtained by buffer alone. Express the results as a percent of the assay window.

Going from `O=[N+]([O-])c1ccc(N2CC[C@H](NCc3ccc(Cl)cc3Cl)C2)nc1` [Example 1, (S)-(2,4-Dichlorobenzyl)-[1-(5-nitropyridin-2-yl)-pyrrolidin-3-yl]-amine] to `Clc1ccc(CN[C@H]2CCN(c3ccc(I)cn3)C2)c(Cl)c1` [Example 23, (S)-(2,4-Dichlorobenzyl)-[1-(5-iodopyridin-2-yl)-pyrrolidin-3-yl]-amine hydrochloride], the IC50 rises from 191 nM to 607 nM (3.2-fold).

Compared with `CC(=O)c1ccc(N2CC[C@H](NCc3ccc(Cl)cc3Cl)C2)s1` [Example 6, (S)-1-{5-[3-(2,4-Dichlorobenzylamino)-pyrrolidin-1-yl]-thiophen-2-yl}-ethanone], `C#Cc1ccc(N2CC[C@H](NCc3ccc(Cl)cc3Cl)C2)nc1` [Example 87, (S)-(2,4-Dichlorobenzyl)-[1-(5-ethynylpyridin-2-yl)-pyrrolidin-3-yl]-amine] is 27-fold lower in IC50: 3910 nM for the first, 143 nM for the second.

Compared with `Clc1ccc(CN[C@H]2CCN(c3ncc(Br)cn3)C2)c(Cl)c1` [Example 28, (S)-[1-(5-Bromopyrimidin-2-yl)-pyrrolidin-3-yl]-(2,4-dichlorobenzyl)-amine], `Clc1cnc(N2CC[C@H](NCc3ccc(Cl)cc3Cl)C2)nc1` [Example 134, (S)-[1-(5-Chloropyrimidin-2-yl)-pyrrolidin-3-yl]-(2,4-dichlorobenzyl)-amine] is 4.4-fold lower in IC50: 340 nM for the first, 77 nM for the second.

Compared with `Fc1ccc(N2CC[C@H](NCc3ccccc3I)C2)cn1` [Example 59, (S)-[1-(6-Fluoropyridin-3-yl)-pyrrolidin-3-yl]-(2-iodobenzyl)-amine hydrochloride], `Clc1ccc(CN[C@H]2CCN(c3ccc(-c4ccccc4)cn3)C2)c(Cl)c1` [Example 108, (S)-(2,4-Dichlorobenzyl)-[1-(5-phenylpyridin-2-yl)-pyrrolidin-3-yl]-amine] is 2.5-fold lower in IC50: 5780 nM for the first, 2270 nM for the second.

First: FC1CN(c2ncc(Br)cn2)CC1NCc1ccc(Cl)cc1Cl (centres unmarked) [Example 101, [1-(5 -Bromopyrimidin-2-yl)-4-fluoropyrrolidin-3-yl]-(2,4-dichlorobenzyl)-amine hydrochloride]
Second: O=C1CN(c2ncc(Br)cn2)CC1NCc1ccc(Cl)cc1Cl (centres unmarked) [Example 121, 1-(5-Bromopyrimidin-2-yl)-4-(2,4-dichlorobenzylamino)-pyrrolidin-3-one]
The IC50 of the first is 2.9-fold higher: 4930 nM for the first, 1680 nM for the second. The second is the more potent here.

`FC(F)(F)c1ccc(CN[C@H]2CCN(c3ncc(Br)cn3)C2)c(Cl)c1` [Example 112, (3S)-[1-(5-Bromopyrimidin-2-yl)-pyrrolidin-3-yl]-(2-chloro-4-trifluoromethylbenzyl)-amine] and `N#Cc1cnc(N2CC[C@H](NCc3ccc(Cl)cc3Cl)C2)nc1` [Example 123, (S)-2-[3-(2,4-Dichlorobenzylamino)-pyrrolidin-1-yl]-pyrimidine-5-carbonitrile] are within 1.5-fold of each other in IC50: 1650 nM for the first, 1180 nM for the second.

test system: male Sprague-Dawley rats; test: Rat dural plasma protein extravasation (PPE) model; assay type: in vivo; conditions: i.v. (tail-vein injection), 60 min before trigeminal ganglion stimulation; dose that gives an extravasation ratio of approximately 1
Protocol: Rat Dural Plasma Protein Extravasation (PPE) Model
Prepare 100 μg/ml stock solution of test compound in a DMSO/saline (20%/80% v/v) solution and make subsequent dilutions with saline. Dose male Sprague-Dawley rats from Harlan Laboratories (250-350 g) with test compound or saline vehicle by oral gavage (2 mL/kg) or intravenous tail-vein injection (1 mL/kg) 45 minutes prior to administration of anesthesia and placement in a stereotaxic frame for implantation of stimulating electrodes. The rats dosed via the oral route are fasted overnight prior to dosing. Fifteen minutes prior to trigeminal ganglion stimulation, the rats are anesthetized with Nembutal (60 mg/kg, ip.) and placed in a stereotaxic frame (David Kopf Instruments) with the incisor bar set at −2.5 mm. […]
A fluorescence microscope (Zeiss) equipped with a grating monochromator and a spectrophotometer is used to quantify the amount of FITC-BSA dye in each dural sample. […] This facilitates the computer-controlled movement of the stage, with fluorescence measurements at 25 points (500 μm steps) on each dural sample. […] The extravasation ratio (i.e. the ratio of the amount of extravasation in the dura from the stimulated side compared to the unstimulated side) is calculated. […]

`Clc1ccc(CN[C@H]2CCN(c3ncc(Br)cn3)C2)c(Cl)c1` [Example 28, (S)-[1-(5-Bromopyrimidin-2-yl)-pyrrolidin-3-yl]-(2,4-dichlorobenzyl)-amine] was tested, and the “ID100 (μg/mL) i.v.” value was 3 µg/mL.

same assay, conditions: p.o. (oral gavage), 60 min before trigeminal ganglion stimulation; dose that gives an extravasation ratio of approximately 1

For `Clc1ccc(CN[C@H]2CCN(c3ncc(Br)cn3)C2)c(Cl)c1` [Example 28, (S)-[1-(5-Bromopyrimidin-2-yl)-pyrrolidin-3-yl]-(2,4-dichlorobenzyl)-amine], the “ID100 (μg/mL) p.o.” value was 3 µg/mL.
